Measurements: PubChem BioAssay AID1259407 (Chemical Carcinogenesis Research Information System (CCRIS), 2018)
Active and inactive are the calls of the source. How the calls were made is not given here.

System: CCRIS mutagenicity, Ames/micronucleus/aberration tests
Assay: CCRIS mutagenicity studies
[1] = Test System: AMES SALMONELLA TYPHIMURIUM, Strain/Indicator: TA98, Metabolic Activation: NONE, Method: PREINCUBATION
[2] = Test System: AMES SALMONELLA TYPHIMURIUM, Strain/Indicator: TA100, Metabolic Activation: NONE, Method: PREINCUBATION
[3] = Test System: AMES SALMONELLA TYPHIMURIUM, Strain/Indicator: TA1535, Metabolic Activation: NONE, Method: PREINCUBATION
[4] = Test System: AMES SALMONELLA TYPHIMURIUM, Strain/Indicator: TA1537, Metabolic Activation: NONE, Method: PREINCUBATION

Measured: mutagenic call

Cc1cc(O)c2c(c1)C(=O)c1cc(O)cc(O)c1C2=O
active: Test System: AMES SALMONELLA TYPHIMURIUM, Strain/Indicator: TA97, Metabolic Activation: RAT, LIVER, S-9, AROCLOR 1254, Method: STANDARD PLATE active; positive | Test System: AMES SALMONELLA TYPHIMURIUM, Strain/Indicator: TA97A, Metabolic Activation: RAT, LIVER, S-9, AROCLOR 1254, Method: STANDARD PLATE active; positive | Test System: AMES SALMONELLA TYPHIMURIUM, Strain/Indicator: TA100, Metabolic Activation: HAMSTER LIVER S-9, AROCLOR 1254 (10% OR 30%), Method: PREINCUBATION active; positive | Test System: AMES SALMONELLA TYPHIMURIUM, Strain/Indicator: TA100, Metabolic Activation: RAT LIVER S-9, AROCLOR 1254 (5% OR 30%), Method: PREINCUBATION active; positive | Test System: AMES SALMONELLA TYPHIMURIUM, Strain/Indicator: TA102, Metabolic Activation: S-9, Method: STANDARD PLATE active; positive | Test System: AMES SALMONELLA TYPHIMURIUM, Strain/Indicator: TA1537, Metabolic Activation: RAT, LIVER, S-9, AROCLOR 1254, Method: STANDARD PLATE active; positive | Test System: AMES SALMONELLA TYPHIMURIUM, Strain/Indicator: TA1537, Metabolic Activation: RAT, LIVER, S-9, PCB, Method: STANDARD PLATE active; positive | Test System: AMES SALMONELLA TYPHIMURIUM, Strain/Indicator: TA1537, Metabolic Activation: RAT, LIVER, S-9, Method: PREINCUBATION active; positive | Test System: AMES SALMONELLA TYPHIMURIUM, Strain/Indicator: TA2638, Metabolic Activation: S-9, Method: STANDARD PLATE active; positive | Test System: CHINESE HAMSTER V-79, Strain/Indicator: V-79/8-AZAGUANINE, Metabolic Activation: NONE, Method: STANDARD PLATE active; positive | Test System: UDS RODENT HEPATOCYTES, Strain/Indicator: THY INCORP (NON-S-PHASE), Metabolic Activation: NONE, Method: AUTORADIOGRAPHY active; positive
inactive: Test System: AMES SALMONELLA TYPHIMURIUM, Strain/Indicator: TA97, Metabolic Activation: NONE, Method: STANDARD PLATE inactive; negative | Test System: AMES SALMONELLA TYPHIMURIUM, Strain/Indicator: TA97A, Metabolic Activation: NONE, Method: STANDARD PLATE inactive; negative | Test System: AMES SALMONELLA TYPHIMURIUM, Strain/Indicator: TA98, Metabolic Activation: HAMSTER, LIVER, S-9, AROCLOR 1254 (30%), Method: PREINCUBATION inactive; negative | [1] inactive; negative | Test System: AMES SALMONELLA TYPHIMURIUM, Strain/Indicator: TA98, Metabolic Activation: RAT LIVER S-9, AROCLOR 1254 (30%), Method: PREINCUBATION inactive; negative | [2] inactive; negative | Test System: AMES SALMONELLA TYPHIMURIUM, Strain/Indicator: TA102, Metabolic Activation: NONE, Method: STANDARD PLATE inactive; negative | Test System: AMES SALMONELLA TYPHIMURIUM, Strain/Indicator: TA1535, Metabolic Activation: NONE, Method: STANDARD PLATE inactive; negative | Test System: AMES SALMONELLA TYPHIMURIUM, Strain/Indicator: TA1535, Metabolic Activation: RAT, LIVER, S-9, AROCLOR 1254, Method: STANDARD PLATE inactive; negative | Test System: AMES SALMONELLA TYPHIMURIUM, Strain/Indicator: TA1538, Metabolic Activation: NONE, Method: STANDARD PLATE inactive; negative | Test System: AMES SALMONELLA TYPHIMURIUM, Strain/Indicator: TA1538, Metabolic Activation: RAT, LIVER, S-9, AROCLOR 1254, Method: STANDARD PLATE inactive; negative | Test System: CHINESE HAMSTER V-79, Strain/Indicator: V-79 (HGPRT)/6-THIOGUANINE, Metabolic Activation: NONE, Method: SUSPENSION/PLATE inactive; negative | Test System: CHINESE HAMSTER V-79, Strain/Indicator: V-79 (HGPRT)/6-THIOGUANINE, Metabolic Activation: RAT, LIVER, S-9, AROCLOR 1254, Method: SUSPENSION/PLATE inactive; negative | Test System: E. COLI, Strain/Indicator: WP2 (PKM101), Metabolic Activation: S-9, Method: STANDARD PLATE inactive; negative | Test System: E. COLI, Strain/Indicator: WP2 UVRA (PKM101), Metabolic Activation: S-9, Method: STANDARD PLATE inactive; negative

CCCCN(CCC(C)=O)N=O
active: Test System: AMES SALMONELLA TYPHIMURIUM, Strain/Indicator: TA1535, Metabolic Activation: RAT, LIVER, S-9, KC500 OR PHENOBARBITAL, Method: LIQUID SUSPENSION active; positive

NCP(=O)(O)O
active: End Point: In vitro chromosome aberrations, Test System: Human peripheral blood lymphocytes, Metabolic Activation: None active; positive (structural changes) | End Point: In vivo micronucleus, Test System: Bone marrow erythrocytes, Species: Mouse, Strain/Sex: BALB/Male and female, Route: Intraperitoneal active; positive

COC1=C(OC)C(=O)C(C/C=C(\C)CC/C=C(\C)CC/C=C(\C)CC/C=C(\C)CC/C=C(\C)CC/C=C(\C)CC/C=C(\C)CC/C=C(\C)CC/C=C(\C)CCC=C(C)C)=C(C)C1=O
inactive: [1] inactive; negative | Test System: AMES SALMONELLA TYPHIMURIUM, Strain/Indicator: TA98, Metabolic Activation: RAT, LIVER, S-9, PHENOBARBITAL AND 5,6-BENZOFLAVONE, Method: PREINCUBATION inactive; negative | [2] inactive; negative | Test System: AMES SALMONELLA TYPHIMURIUM, Strain/Indicator: TA100, Metabolic Activation: RAT, LIVER, S-9, PHENOBARBITAL AND 5,6-BENZOFLAVONE, Method: PREINCUBATION inactive; negative | [3] inactive; negative | Test System: AMES SALMONELLA TYPHIMURIUM, Strain/Indicator: TA1535, Metabolic Activation: RAT, LIVER, S-9, PHENOBARBITAL AND 5,6-BENZOFLAVONE, Method: PREINCUBATION inactive; negative | [4] inactive; negative | Test System: AMES SALMONELLA TYPHIMURIUM, Strain/Indicator: TA1537, Metabolic Activation: RAT, LIVER, S-9, PHENOBARBITAL AND 5,6-BENZOFLAVONE, Method: PREINCUBATION inactive; negative | Test System: E. COLI, Strain/Indicator: WP2UVRA, Metabolic Activation: NONE, Method: PREINCUBATION inactive; negative | Test System: E. COLI, Strain/Indicator: WP2UVRA, Metabolic Activation: RAT, LIVER, S-9, PHENOBARBITAL AND 5,6-BENZOFLAVONE, Method: PREINCUBATION inactive; negative

CC(=O)c1ccccc1[N+](=O)[O-]
inactive: Test System: AMES SALMONELLA TYPHIMURIUM, Strain/Indicator: TA98, Metabolic Activation: HAMSTER, LIVER, S-9, AROCLOR 1254 (10%), Method: PREINCUBATION inactive; negative | [1] inactive; negative | Test System: AMES SALMONELLA TYPHIMURIUM, Strain/Indicator: TA98, Metabolic Activation: RAT, LIVER, S-9, AROCLOR 1254 (10%), Method: PREINCUBATION inactive; negative | Test System: AMES SALMONELLA TYPHIMURIUM, Strain/Indicator: TA98, Method: PREINCUBATION inactive; negative | Test System: AMES SALMONELLA TYPHIMURIUM, Strain/Indicator: TA100, Metabolic Activation: HAMSTER, LIVER, S-9, AROCLOR 1254 (10%), Method: PREINCUBATION inactive; negative | [2] inactive; negative | Test System: AMES SALMONELLA TYPHIMURIUM, Strain/Indicator: TA100, Metabolic Activation: RAT, LIVER, S-9, AROCLOR 1254 (10%), Method: PREINCUBATION inactive; negative | Test System: AMES SALMONELLA TYPHIMURIUM, Strain/Indicator: TA100, Method: PREINCUBATION inactive; negative | Test System: AMES SALMONELLA TYPHIMURIUM, Strain/Indicator: TA1535, Metabolic Activation: HAMSTER, LIVER, S-9, AROCLOR 1254 (10%), Method: PREINCUBATION inactive; negative | [3] inactive; negative | Test System: AMES SALMONELLA TYPHIMURIUM, Strain/Indicator: TA1535, Metabolic Activation: RAT, LIVER, S-9, AROCLOR 1254 (10%), Method: PREINCUBATION inactive; negative | Test System: AMES SALMONELLA TYPHIMURIUM, Strain/Indicator: TA1535, Method: PREINCUBATION inactive; negative | Test System: AMES SALMONELLA TYPHIMURIUM, Strain/Indicator: TA1537, Metabolic Activation: HAMSTER, LIVER, S-9, AROCLOR 1254 (10%), Method: PREINCUBATION inactive; negative | [4] inactive; negative | Test System: AMES SALMONELLA TYPHIMURIUM, Strain/Indicator: TA1537, Metabolic Activation: RAT, LIVER, S-9, AROCLOR 1254 (10%), Method: PREINCUBATION inactive; negative | Test System: AMES SALMONELLA TYPHIMURIUM, Strain/Indicator: TA1537, Method: PREINCUBATION inactive; negative | Test System: AMES SALMONELLA TYPHIMURIUM, Strain/Indicator: TA1538, Metabolic Activation: NONE, Method: PREINCUBATION inactive; negative | Test System: AMES SALMONELLA TYPHIMURIUM, Strain/Indicator: TA1538, Method: PREINCUBATION inactive; negative
